Legend:
[1] = biological target: Cyclin-dependent kinase 11B (Homo sapiens) (UniProt P21127); conditions: Compound concentration 1000.0 nM
[2] = biological target: Serine/threonine-protein kinase tousled-like 1 (Homo sapiens) (UniProt Q9UKI8); conditions: Compound concentration 1000.0 nM
[3] = biological target: Glycogen synthase kinase-3 beta (Homo sapiens) (UniProt P49841); conditions: Compound concentration 1000.0 nM
[4] = biological target: Cyclin-dependent kinase-like 2 (Homo sapiens) (UniProt Q92772); conditions: Compound concentration 1000.0 nM
[5] = biological target: Cyclin-dependent kinase 4 (Homo sapiens) (UniProt P11802); conditions: Compound concentration 1000.0 nM
[6] = biological target: Histamine H3 receptor (Homo sapiens) (UniProt Q9Y5N1); conditions: Compound concentration 10.0 uM
[7] = biological target: Ribosomal protein S6 kinase alpha-6 (Homo sapiens) (UniProt Q9UK32); conditions: Compound concentration 1000.0 nM
[8] = biological target: Serine/threonine-protein kinase OSR1 (Homo sapiens) (UniProt O95747); conditions: Compound concentration 1000.0 nM
[9] = system: Tyrosine-protein kinase ABL1 (Homo sapiens), P00519 [Q252H]; conditions: Compound concentration 1000.0 nM
[10] = biological target: Tyrosine-protein kinase ITK/TSK (Homo sapiens) (UniProt Q08881); conditions: Compound concentration 1000.0 nM
[11] = biological target: Eukaryotic translation initiation factor 2-alpha kinase 1 (Homo sapiens) (UniProt Q9BQI3); conditions: Compound concentration 1000.0 nM
[12] = biological target: Serine/threonine-protein kinase PAK 2 (Homo sapiens) (UniProt Q13177); conditions: Compound concentration 1000.0 nM
[13] = biological target: Serine/threonine-protein kinase D2 (Homo sapiens) (UniProt Q9BZL6); conditions: Compound concentration 1000.0 nM
[14] = biological target: Protein-tyrosine kinase 2-beta (Homo sapiens) (UniProt Q14289); conditions: Compound concentration 1000.0 nM
[15] = system: Tyrosine-protein kinase ABL1 (Homo sapiens), P00519 [M351T]; conditions: Compound concentration 1000.0 nM
[16] = biological target: Mitogen-activated protein kinase kinase kinase kinase 4 (Homo sapiens) (UniProt O95819); conditions: Compound concentration 1000.0 nM
[17] = biological target: Serine/threonine-protein kinase TAO2 (Homo sapiens) (UniProt Q9UL54); conditions: Compound concentration 1000.0 nM
[18] = biological target: Protein kinase C epsilon type (Homo sapiens) (UniProt Q02156); conditions: Compound concentration 1000.0 nM
[19] = biological target: 5-hydroxytryptamine receptor 6 (Homo sapiens) (UniProt P50406); conditions: Compound concentration 10.0 uM
[20] = biological target: High affinity choline transporter 1 (Homo sapiens) (UniProt Q9GZV3); test: Choline transporter 1 (human) CEREP ligand profiling; conditions: Compound concentration 10.0 uM
[21] = biological target: Tyrosine-protein kinase HCK (Homo sapiens) (UniProt P08631); conditions: Compound concentration 1000.0 nM
[22] = biological target: Mitogen-activated protein kinase kinase kinase kinase 1 (Homo sapiens) (UniProt Q92918); conditions: Compound concentration 1000.0 nM
[23] = biological target: Delta-type opioid receptor (Homo sapiens) (UniProt P41143); conditions: Compound concentration 10.0 uM
[24] = biological target: Ankyrin repeat and protein kinase domain-containing protein 1 (Homo sapiens) (UniProt Q8NFD2); conditions: Compound concentration 1000.0 nM
[25] = biological target: Vascular endothelial growth factor receptor 3 (Homo sapiens) (UniProt P35916); conditions: Compound concentration 1000.0 nM
[26] = biological target: Rho-associated protein kinase 1 (Homo sapiens) (UniProt Q13464); conditions: Compound concentration 1000.0 nM
[27] = system: Epidermal growth factor receptor (Homo sapiens), P00533 [L858R,T790M]; conditions: Compound concentration 1000.0 nM
[28] = biological target: Transient receptor potential cation channel subfamily M member 6 (Homo sapiens) (UniProt Q9BX84); conditions: Compound concentration 1000.0 nM
[29] = biological target: Mitogen-activated protein kinase 3 (Homo sapiens) (UniProt P27361); conditions: Compound concentration 1000.0 nM
[30] = biological target: Casein kinase I isoform alpha (Homo sapiens) (UniProt P48729); conditions: Compound concentration 1000.0 nM
[31] = biological target: Calcium/calmodulin-dependent protein kinase kinase 1 (Homo sapiens) (UniProt Q8N5S9); conditions: Compound concentration 1000.0 nM
[32] = biological target: Mu-type opioid receptor (Homo sapiens) (UniProt P35372); conditions: Compound concentration 10.0 uM
[33] = biological target: Ephrin type-B receptor 2 (Homo sapiens) (UniProt P29323); conditions: Compound concentration 1000.0 nM
[34] = system: Epidermal growth factor receptor (Homo sapiens), P00533 [G719C]; conditions: Compound concentration 1000.0 nM
[35] = system: Leucine-rich repeat serine/threonine-protein kinase 2 (Homo sapiens), Q5S007 [G2019S]; conditions: Compound concentration 1000.0 nM
[36] = biological target: Protein kinase C delta type (Homo sapiens) (UniProt Q05655); conditions: Compound concentration 1000.0 nM
[37] = system: Phosphatidylinositol 4,5-bisphosphate 3-kinase catalytic subunit alpha isoform (Homo sapiens), P42336 [H1047Y]; conditions: Compound concentration 1000.0 nM
[38] = biological target: Phosphatidylinositol 4-phosphate 3-kinase C2 domain-containing subunit beta (Homo sapiens) (UniProt O00750); conditions: Compound concentration 1000.0 nM
[39] = biological target: RAC-gamma serine/threonine-protein kinase (Homo sapiens) (UniProt Q9Y243); conditions: Compound concentration 1000.0 nM
[40] = biological target: SRSF protein kinase 3 (Homo sapiens) (UniProt Q9UPE1); conditions: Compound concentration 1000.0 nM
[41] = system: Receptor-type tyrosine-protein kinase FLT3 (Homo sapiens), P36888 [D835V]; conditions: Compound concentration 1000.0 nM
[42] = system: Epidermal growth factor receptor (Homo sapiens), P00533 [L861Q]; conditions: Compound concentration 1000.0 nM
[43] = biological target: Serine/threonine-protein kinase haspin (Homo sapiens) (UniProt Q8TF76); conditions: Compound concentration 1000.0 nM
[44] = biological target: Phosphatidylinositol 3-kinase catalytic subunit type 3 (Homo sapiens) (UniProt Q8NEB9); conditions: Compound concentration 1000.0 nM
[45] = biological target: Macrophage colony-stimulating factor 1 receptor (Homo sapiens) (UniProt P07333); conditions: Compound concentration 1000.0 nM
Sequence of Macrophage colony-stimulating factor 1 receptor (Homo sapiens) (P07333 whole entry): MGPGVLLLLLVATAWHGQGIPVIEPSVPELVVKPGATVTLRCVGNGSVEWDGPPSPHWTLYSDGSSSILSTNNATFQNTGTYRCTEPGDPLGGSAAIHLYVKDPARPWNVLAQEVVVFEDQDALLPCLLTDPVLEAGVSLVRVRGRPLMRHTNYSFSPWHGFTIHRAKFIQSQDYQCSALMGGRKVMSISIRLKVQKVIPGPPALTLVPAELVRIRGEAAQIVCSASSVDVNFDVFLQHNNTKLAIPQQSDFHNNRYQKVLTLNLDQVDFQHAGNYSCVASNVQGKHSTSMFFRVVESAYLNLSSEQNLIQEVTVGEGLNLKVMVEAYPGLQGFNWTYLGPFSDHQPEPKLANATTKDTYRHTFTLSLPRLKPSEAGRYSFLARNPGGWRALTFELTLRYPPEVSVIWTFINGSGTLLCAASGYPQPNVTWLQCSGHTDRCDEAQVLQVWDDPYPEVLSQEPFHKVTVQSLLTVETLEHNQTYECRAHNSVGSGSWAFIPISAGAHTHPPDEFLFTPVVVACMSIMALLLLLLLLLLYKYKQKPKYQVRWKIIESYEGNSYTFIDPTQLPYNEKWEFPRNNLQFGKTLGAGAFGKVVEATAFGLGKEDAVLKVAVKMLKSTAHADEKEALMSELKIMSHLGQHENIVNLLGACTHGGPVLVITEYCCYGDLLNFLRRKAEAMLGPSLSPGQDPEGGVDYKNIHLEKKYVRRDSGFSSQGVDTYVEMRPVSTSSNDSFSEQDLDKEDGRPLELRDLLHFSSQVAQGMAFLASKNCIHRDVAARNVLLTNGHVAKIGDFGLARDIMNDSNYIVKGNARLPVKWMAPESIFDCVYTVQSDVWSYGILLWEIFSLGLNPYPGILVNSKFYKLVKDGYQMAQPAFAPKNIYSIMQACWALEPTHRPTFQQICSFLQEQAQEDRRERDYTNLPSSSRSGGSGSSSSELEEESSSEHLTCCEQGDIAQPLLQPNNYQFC

Sequence of Mitogen-activated protein kinase 3 (Homo sapiens) (P27361 whole entry, canonical isoform): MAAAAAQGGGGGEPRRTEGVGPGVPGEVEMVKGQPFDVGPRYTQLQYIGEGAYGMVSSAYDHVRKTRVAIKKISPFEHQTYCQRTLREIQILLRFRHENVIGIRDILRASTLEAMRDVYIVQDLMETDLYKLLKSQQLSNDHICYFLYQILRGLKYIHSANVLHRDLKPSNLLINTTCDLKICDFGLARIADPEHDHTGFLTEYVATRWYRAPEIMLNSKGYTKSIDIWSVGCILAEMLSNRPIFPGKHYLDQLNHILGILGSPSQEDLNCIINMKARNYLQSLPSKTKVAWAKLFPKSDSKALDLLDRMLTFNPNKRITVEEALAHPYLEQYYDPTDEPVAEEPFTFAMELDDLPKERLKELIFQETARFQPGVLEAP
Sequence of High affinity choline transporter 1 (Homo sapiens) (Q9GZV3 whole entry): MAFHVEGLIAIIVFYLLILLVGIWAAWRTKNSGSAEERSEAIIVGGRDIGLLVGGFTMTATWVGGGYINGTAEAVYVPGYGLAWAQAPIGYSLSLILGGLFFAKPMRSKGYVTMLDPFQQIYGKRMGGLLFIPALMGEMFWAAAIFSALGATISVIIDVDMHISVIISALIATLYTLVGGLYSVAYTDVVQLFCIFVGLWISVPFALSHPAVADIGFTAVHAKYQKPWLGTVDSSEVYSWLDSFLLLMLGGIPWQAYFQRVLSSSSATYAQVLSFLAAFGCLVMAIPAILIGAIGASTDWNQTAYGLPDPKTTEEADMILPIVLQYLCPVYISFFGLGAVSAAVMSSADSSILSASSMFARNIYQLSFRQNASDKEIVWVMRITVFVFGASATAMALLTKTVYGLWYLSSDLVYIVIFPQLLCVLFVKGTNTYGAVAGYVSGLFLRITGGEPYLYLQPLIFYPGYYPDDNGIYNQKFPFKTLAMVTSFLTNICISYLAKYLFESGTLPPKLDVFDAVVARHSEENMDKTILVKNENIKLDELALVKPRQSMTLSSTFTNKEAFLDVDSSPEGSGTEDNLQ
Sequence of Eukaryotic translation initiation factor 2-alpha kinase 1 (Homo sapiens) (Q9BQI3 whole entry): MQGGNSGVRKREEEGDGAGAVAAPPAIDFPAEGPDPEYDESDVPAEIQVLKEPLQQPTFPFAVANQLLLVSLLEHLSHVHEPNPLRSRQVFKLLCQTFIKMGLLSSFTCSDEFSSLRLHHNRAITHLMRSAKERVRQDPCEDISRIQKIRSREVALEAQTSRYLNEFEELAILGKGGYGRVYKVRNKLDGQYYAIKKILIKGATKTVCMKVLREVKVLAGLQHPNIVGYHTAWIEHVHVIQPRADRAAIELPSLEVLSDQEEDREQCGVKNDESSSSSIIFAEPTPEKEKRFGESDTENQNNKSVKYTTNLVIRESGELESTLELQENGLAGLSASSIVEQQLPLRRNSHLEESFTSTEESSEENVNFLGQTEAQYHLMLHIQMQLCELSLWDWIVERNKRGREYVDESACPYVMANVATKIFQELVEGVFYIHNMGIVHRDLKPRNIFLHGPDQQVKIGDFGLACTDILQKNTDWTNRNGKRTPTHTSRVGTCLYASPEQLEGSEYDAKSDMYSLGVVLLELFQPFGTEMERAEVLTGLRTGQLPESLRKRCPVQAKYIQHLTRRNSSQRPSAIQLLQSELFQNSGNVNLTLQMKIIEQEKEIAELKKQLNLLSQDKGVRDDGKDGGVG
Sequence of Ribosomal protein S6 kinase alpha-6 (Homo sapiens) (Q9UK32 whole entry): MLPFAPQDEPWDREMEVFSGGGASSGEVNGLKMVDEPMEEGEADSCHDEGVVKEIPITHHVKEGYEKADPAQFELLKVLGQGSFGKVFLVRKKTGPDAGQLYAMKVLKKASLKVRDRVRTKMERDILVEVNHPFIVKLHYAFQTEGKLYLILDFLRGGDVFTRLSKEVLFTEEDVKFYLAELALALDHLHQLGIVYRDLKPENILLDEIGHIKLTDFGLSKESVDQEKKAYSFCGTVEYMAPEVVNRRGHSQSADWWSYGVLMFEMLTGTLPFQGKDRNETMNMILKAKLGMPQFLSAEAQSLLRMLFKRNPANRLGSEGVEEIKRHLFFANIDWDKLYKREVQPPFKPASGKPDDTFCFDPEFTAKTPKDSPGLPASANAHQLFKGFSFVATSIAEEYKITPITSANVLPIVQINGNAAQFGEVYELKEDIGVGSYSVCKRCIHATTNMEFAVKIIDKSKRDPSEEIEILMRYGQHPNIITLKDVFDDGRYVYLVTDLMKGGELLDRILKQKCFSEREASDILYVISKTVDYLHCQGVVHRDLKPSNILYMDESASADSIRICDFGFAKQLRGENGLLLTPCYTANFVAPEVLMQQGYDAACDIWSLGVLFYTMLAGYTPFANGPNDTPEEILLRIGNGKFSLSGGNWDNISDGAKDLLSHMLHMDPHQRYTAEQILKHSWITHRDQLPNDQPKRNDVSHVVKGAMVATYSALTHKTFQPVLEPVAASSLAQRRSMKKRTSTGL
Sequence of Phosphatidylinositol 4,5-bisphosphate 3-kinase catalytic subunit alpha isoform (Homo sapiens), P42336 [H1047Y] (P42336 whole entry H1047Y, the tested form may be a part, canonical isoform): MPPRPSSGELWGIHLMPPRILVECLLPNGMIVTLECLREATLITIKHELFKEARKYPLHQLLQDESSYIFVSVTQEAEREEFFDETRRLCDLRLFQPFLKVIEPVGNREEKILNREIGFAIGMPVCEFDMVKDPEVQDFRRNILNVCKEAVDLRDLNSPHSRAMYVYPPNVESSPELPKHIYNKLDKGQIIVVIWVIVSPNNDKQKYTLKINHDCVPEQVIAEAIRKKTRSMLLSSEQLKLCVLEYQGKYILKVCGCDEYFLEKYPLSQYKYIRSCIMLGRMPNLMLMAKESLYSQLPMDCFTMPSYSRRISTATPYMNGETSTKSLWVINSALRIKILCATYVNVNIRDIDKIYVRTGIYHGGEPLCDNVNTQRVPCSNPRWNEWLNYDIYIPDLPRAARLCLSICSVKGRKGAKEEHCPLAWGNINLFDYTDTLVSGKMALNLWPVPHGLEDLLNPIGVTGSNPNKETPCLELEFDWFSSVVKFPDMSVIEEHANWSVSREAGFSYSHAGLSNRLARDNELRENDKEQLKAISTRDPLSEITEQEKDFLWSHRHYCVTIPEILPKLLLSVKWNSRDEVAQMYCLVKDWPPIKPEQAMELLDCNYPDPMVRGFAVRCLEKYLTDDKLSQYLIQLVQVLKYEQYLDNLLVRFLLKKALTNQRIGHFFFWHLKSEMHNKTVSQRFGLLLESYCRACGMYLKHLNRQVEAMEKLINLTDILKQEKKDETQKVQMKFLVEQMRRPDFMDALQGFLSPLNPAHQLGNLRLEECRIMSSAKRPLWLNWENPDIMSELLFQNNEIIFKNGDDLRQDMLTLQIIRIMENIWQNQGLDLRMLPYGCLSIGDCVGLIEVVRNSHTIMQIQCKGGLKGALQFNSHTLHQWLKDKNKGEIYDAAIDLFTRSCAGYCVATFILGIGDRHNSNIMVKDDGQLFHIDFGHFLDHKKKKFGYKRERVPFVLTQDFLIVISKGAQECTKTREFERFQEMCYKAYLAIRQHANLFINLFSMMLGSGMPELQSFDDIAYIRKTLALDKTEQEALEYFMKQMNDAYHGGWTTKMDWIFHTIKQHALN
Sequence of Histamine H3 receptor (Homo sapiens) (Q9Y5N1 whole entry): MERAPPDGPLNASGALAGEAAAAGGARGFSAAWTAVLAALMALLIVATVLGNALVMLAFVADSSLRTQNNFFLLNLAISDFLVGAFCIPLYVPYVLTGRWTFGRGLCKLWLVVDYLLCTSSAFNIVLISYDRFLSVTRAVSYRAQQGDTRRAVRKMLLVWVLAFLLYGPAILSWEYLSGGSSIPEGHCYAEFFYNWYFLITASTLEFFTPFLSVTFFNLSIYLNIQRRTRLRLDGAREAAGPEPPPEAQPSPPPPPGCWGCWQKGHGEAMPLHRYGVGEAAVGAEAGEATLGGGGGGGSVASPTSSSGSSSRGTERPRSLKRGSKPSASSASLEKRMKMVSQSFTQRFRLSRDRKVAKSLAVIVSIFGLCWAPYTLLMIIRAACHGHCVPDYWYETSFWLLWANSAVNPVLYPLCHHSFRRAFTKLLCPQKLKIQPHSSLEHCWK

C[C@H](c1ccc(F)cc1)N(Cc1cccc(C(=O)O)c1)C(=O)c1cnc2ccccc2c1 [PF-05105679]
inactive: residual activity [1] 84% | residual activity [2] 97% | residual activity [3] 100% | residual activity [4] 100% | residual activity [5] 97% | inhibition [6] 16.6% | residual activity [7] 100% | residual activity [8] 100% | residual activity [9] 90% | residual activity [10] 84% | residual activity [11] 84% | residual activity [12] 100% | residual activity [13] 100% | residual activity [14] 100% | residual activity [15] 94% | residual activity [16] 96% | residual activity [17] 100% | residual activity [18] 95% | inhibition [19] 3.57% | inhibition [20] 22% | residual activity [21] 88% | residual activity [22] 100% | inhibition [23] -1.72% | residual activity [24] 81% | residual activity [25] 95% | residual activity [26] 100% | residual activity [27] 96% | residual activity [28] 100% | residual activity [29] 100% | residual activity [30] 100% | residual activity [31] 100% | inhibition [32] 1.23% | residual activity [33] 96% | residual activity [34] 90% | residual activity [35] 100% | residual activity [36] 100% | residual activity [37] 100% | residual activity [38] 90% | residual activity [39] 100% | residual activity [40] 92% | residual activity [41] 98% | residual activity [42] 100% | residual activity [43] 100% | residual activity [44] 100% | residual activity [45] 65%
